Key:
ZIKV = assay: Infectious virus particles in supernatants of ZIKV-infected human NPC cells, plaque assay; assay type: cell-based, Zika virus; details: FIG. 13
Description: FIG. 13: Quantification of infectious virus particles in the supernatants of human NPC cells pre-treated with CH2213191 or vehicle-treated using a standard plaque assay in Vero cells. Data represent the mean+s.e.m. from three independent experiments. P values were determined by a one-way ANOVA followed by Tukey's post-hoc test.
HepG2 (ATCC, HB-8065), A549 (ATCC® CCL-185™), HeLa (ATCC, CCL-2) and Vero cells (African green monkey kidney) (ATCC, CCL-81) were grown in Dulbecco's Modified Eagle's medium (DMEM, GIBCO) supplemented with 10% fetal bovine serum, 100 IU/ml of penicillin and 100 ug/ml of streptomycin. HEK-293 cells (ATCC, CRL-1573) and SUM149 cells (Asterand Bioscience, Detroit, Mich.) were grown in DMEM/F12 (GIBCO) supplemented with 10% fetal bovine serum, 100 IU/ml of penicillin and 100 ug/ml of streptomycin. C6/36 mosquito cells from Aedes albopictus were used to generate viral stocks, and were cultured in L-15 medium (Leibovitz) (GIBCO) supplemented with 0.3% tryptose phosphate broth, 0.02% glutamine, 1% MEM non-essential amino acids solution and 10% fetal bovine serum. Human NPCs (Stem Cell Technologies, Catalog #70901) were grown using neural progenitor medium 2 (Stem Cell Technologies). […]

[1] = system: DENV-1, DENV-2, DENV-3, DENV-4; assay: DENV plaque assay of supernatants of A549 cells; assay type: cell-based, dengue virus; details: A549 pre-treated, moi=0.1, 24 h p.i.; FIGS. 63A-63D
Description: FIG. 62: AHR activation boosts DENV replication. A549 cells were pretreated with the indicated concentrations of I3S for 24 h and infected with DENV-2 (moi=0.1). 48 h p.i. supernatants were harvested for plaque assay.
FIGS. 63A-63D: AHR modulation affects DENV replication. Infectious virus particles in the supernatants of A549 cells pre-treated with CH2213191 and infected with DENV-1 (FIG. 63A), DENV-2 (FIG. 63B), DENV-3 (FIG. 63C) or DENV-4 (FIG. 63D) (moi=0.1). At 24 h p.i. supernatants were harvested for plaque assay.

Pml promoter = assay: PML promoter Gaussia Luciferase reporter assay in HEK-293 cells; assay type: cell-based, human; details: HEK-293, 24 h post transfection; FIG. 28
Description: FIG. 28: Luciferase assay using a construct coding for the PML promoter cloned upstream of the reporter gene Gaussia Luciferase. HEK-293 cells were pre-treated with CH223191 and transfected with plasmids as indicated. 24 h post transfection, cells were harvested for quantification of Gaussia Luciferase and TK-Renilla activity. Data represent the mean+s.e.m. from three independent experiments. P values were determined by a one-way ANOVA followed by Tukey's post-hoc test.
PML shRNA plasmid (sc-36284-SH) was obtained from Santa Cruz Biotechnology. Transfection of HeLa cells was performed using Lipofectamine 2000 (Thermo Fisher) according to manufacturer's instructions. The plasmid encoding for the promoter region of PML, placed upstream of the Gaussia Luciferase (GLuc) reporter gene, was obtained from Genecopoeia. For the luciferase assay, HEK-293 cells were grown in 96 well-plates and transfected using Fugene-HD Transfection Reagent (Roche). Plasmids used for transfection in each condition are indicated in the experiment. 24 h later, pGudluc activity was analyzed using BioLux Gaussia Luciferase Assay Kit (New England Biolabs) and normalized to TK-Renilla luciferase activity, measured using the Renilla Luciferase Assay System (Promega).

Cc1ccccc1/N=N/c1ccc(NC(=O)c2ccnn2C)c(C)c1 [CH223191, 2-Methyl-2H-pyrazole-3-carboxylic Acid (2-methyl-4-o-tolylazo-phenyl)-amide]
ZIKV replication in NPCs cultures (ZIKV): decreased | replication of the four DENV serotypes [1]: reduced | Pml promoter transactivation by NF-κB in presence of co-expressed AHR (Pml promoter): rescued

Reference: patent publication US20220323402A1, “TREATMENT, AMELIORATION OR PREVENTION OF A VIRAL INFECTION” (priority 2019, published 2022)
